In this test the test system is PD-1-overexpressing Jurkat cells. Briefly: Small molecule screen: IL2 secretion (AlphaLISA) from stimulated PD-1-overexpressing Jurkat cells. It counts as cell-based, human. The note with it: 3.3 μM compound; for Zscore_1 / Zscore_2: IL2 level, α-CD3/α-CD28/α-PD-1 beads; for Zscore_1: replicate 1; for Zscore_2: replicate 2; for Zscore_AVG: average of replicate Z scores. On the procedure:
PD-1-overexpressing Jurkat cells were plated at a concentration of 100,000 cells/well in a total volume of 80 μl. […] Dynabeads conjugated to α-CD3, α-CD28, and α-PD-1 antibodies were added in 20 for a final assay volume of 100 with a final compound concentration of 3.3 μM and an 8:1 bead:cell ratio. Beads were conjugated to α-CD3/α-CD28/control IgG and added to wells containing DMSO-treated cells as a positive control, while beads conjugated to α-CD3/α-CD28/α-PD1 were added to wells containing DMSO-treated cells as a negative control. Supernatants from each well were analyzed for IL2 levels by AlphaLISA (Perkin Elmers) according to the manufacturer's protocol. Average and standard deviation values were calculated from the PD-1 controls (DMSO-treated cells stimulated with α-CD3/α-CD28/α-PD-1 beads); hits were defined as compounds scoring at least 3 standard deviations from the mean of the controls.
In addition to known negative regulators of IL-2 production (e.g. glycogen synthase kinase-3α/β (GSK3α/β) (24,25)), this screen identified cyclin-dependent kinases 4 and 6 inhibitors (CDK4/6i) as top hits (Table 1).

The structures appear in SMILES notation.

Consider `O=C1c2ccccc2-[n+]2ccc3c([nH]c4ccccc43)c21` [Fascaplysin, synthetic], for which the Zscore_1 was −6.289, the Zscore_2 is reported as −8.222 and the Zscore_AVG was −7.256.
Molecule `c1ccc(-c2cnc(Nc3ccc(OCCN4CCCC4)cc3)s2)cc1` [Flt-3 Inhibitor III] came in with a Zscore_1 of 1.171, a Zscore_2 of 3.361 and a Zscore_AVG of 2.266.
Molecule `O=C(c1cc2cc(O)ccc2[nH]1)c1cc2cc(O)ccc2[nH]1` [Flt-3 Inhibitor II] came in with a Zscore_1 of 1.536, a Zscore_2 of 2.085 and a Zscore_AVG of 1.81.
With `COc1ccc(C(=O)Nc2sc3c(c2C(N)=O)CCCC3)cc1OC` [Flt-3 Inhibitor], the Zscore_1 was determined as 1.516, the Zscore_2 stood at 2.085 and the Zscore_AVG was 1.801.
In the same order, the values of `Cn1c2ccccc2c2c3c(c4c5ccccc5n(CCC#N)c4c21)CNC3=O` [G? 6976] are −6.424, −4.191 and −5.308.
Regarding `COc1ccc2c(c1)c(C1=C(c3c[nH]c4ccccc34)C(=O)NC1=O)cn2CCCN(C)C` [G? 6983], the Zscore_1 is on record as −9.778, the Zscore_2 was −9.075 and the Zscore_AVG is given as −9.426.
For `CN1C(=O)/C(=C2\Nc3ccccc3\C2=N/O)c2ccc(Br)cc21` [GSK-3 Inhibitor IX, Control, MeBIO], in that order: 1.104, 1.769 and 1.437.
For `O=C1Nc2cc(Br)ccc2/C1=C1/Nc2ccccc2/C1=N\O` [GSK-3 Inhibitor IX], in that order: 25.07, 34.88 and 29.98.
In the same order, the values of `Cc1cc(Nc2nc(-c3ccccc3)nc3ccccc23)n[nH]1` [GSK-3 Inhibitor XIII] are −2.535, −3.925 and −3.23.
As to `CC(=O)O/N=C1/C(=C2/C(=O)Nc3cc(Br)ccc32)Nc2ccccc21` [GSK-3 Inhibitor X], the Zscore_1 is recorded as 28.58, the Zscore_2 is recorded as 35.89 and the Zscore_AVG was 32.23.
In the same order, the values of `Ic1cccc(CSc2nnc(-c3ccncc3)o2)c1` [GSK-3b Inhibitor II] are −2.376, −0.4154 and −1.396.
In turn, `Cn1sc(=O)n(Cc2ccccc2)c1=O` [GSK-3b Inhibitor I] came in with a Zscore_1 of −1.327, a Zscore_2 of −2.222 and a Zscore_AVG of −1.774.
`COc1ccc(CNC(=O)Nc2ncc([N+](=O)[O-])s2)cc1` [GSK-3b Inhibitor VIII] had a Zscore_1 of 1.017, a Zscore_2 of 0.5916 and a Zscore_AVG of 0.8042.
In turn, `Nc1cccc(-c2cc3c(Oc4cccc(O)c4)ncnc3[nH]2)c1` [GSK-3b Inhibitor XII, TWS119] displayed a Zscore_1 of −1.059, a Zscore_2 of −1.321 and a Zscore_AVG of −1.19.
As to `O=C1NC(=O)C(c2cn(CCCO)c3ncccc23)=C1c1cnccn1` [GSK-3b Inhibitor XI], the Zscore_1 came out at 5.72, the Zscore_2 is 4.871 and the Zscore_AVG amounted to 5.296.
`CNCCNS(=O)(=O)c1cccc2cnccc12.Cl.Cl` [H-8, Dihydrochloride] showed a Zscore_1 of −1.014, a Zscore_2 of −2.509 and a Zscore_AVG of −1.761.
`Cl.Cl.O=S(=O)(NCCNC/C=C/c1ccc(Br)cc1)c1cccc2cnccc12` [H-89, Dihydrochloride] yielded a Zscore_1 of −3.268, a Zscore_2 of −0.4334 and a Zscore_AVG of −1.851.
For `Cl.Cl.N=C(N)NCCNS(=O)(=O)c1cccc2cnccc12` [HA 1004, Dihydrochloride], in that order: 0.08457, −0.6711 and −0.2933.
In the same order, the values of `Cl.Cl.O=S(=O)(c1cccc2cnccc12)N1CCCNCC1` [HA 1077, Dihydrochloride Fasudil] are −1.883, −3.234 and −2.559.
The molecule `CO[C@H]1[C@@H](OC)C[C@H](C)[C@@H](OC)C2=CC(=O)C=C(NC(=O)/C(C)=C/C=C\[C@H](OC)[C@@H](OC(N)=O)/C(C)=C/[C@@H]1C)C2=O` [Herbimycin A, Streptomyces sp.] had a Zscore_1 of 5.643, a Zscore_2 of 3.663 and a Zscore_AVG of 4.653.
For `COc1cc(OC)c(C=C2C(O)=Nc3ccccc32)c(OC)c1` [IC261], in that order: −0.7866, −1.136 and −0.9616.
For `COc1ccc(Cl)cc1NC(=O)Nc1cc(C)nc2ccccc12` [IGF-1R Inhibitor II], in that order: 0.516, −0.987 and −0.2355.
In the same order, the values of `O=C(Nc1cc(Cl)cc2c1[nH]c1cnccc12)c1cccnc1` [IKK Inhibitor X] are −4.959, −5.349 and −5.154.
Molecule `NC(=O)Nc1sc(-c2ccc(F)cc2)cc1C(N)=O` [IKK-2 Inhibitor IV] came in with a Zscore_1 of −1.558, a Zscore_2 of −4.19 and a Zscore_AVG of −2.874.
Turning to `N#Cc1c(C2CCNCC2)cc(-c2c(O)cccc2OCC2CC2)nc1N` [IKK-2 Inhibitor VIII], the Zscore_1 is given as −0.6795, the Zscore_2 is on record as −0.365 and the Zscore_AVG is −0.5222.
`NC(=O)Nc1sc(-c2ccccc2)cc1C(N)=O` [IKK-2 Inhibitor VI] showed a Zscore_1 of −5.576, a Zscore_2 of −7.212 and a Zscore_AVG of −6.394.
In the same order, the values of `O=C(Nc1cc(C(F)(F)F)cc(C(F)(F)F)c1)c1cc(Cl)ccc1O` [IKK-2 Inhibitor V] are −5.485, −7.792 and −6.638.
For the molecule `COc1cc2ncn(-c3cc(OCc4ccccc4S(C)(=O)=O)c(C#N)s3)c2cc1OC` [IKK-3 Inhibitor IX], the Zscore_1 came to 3.754, the Zscore_2 came out at 2.454 and the Zscore_AVG came out at 3.104.
Turning to `O=[N+]([O-])c1ccc(CNc2nc(NCc3cccc(C(F)(F)F)c3)nc3nc[nH]c23)cc1` [IP3K Inhibitor], the Zscore_1 is recorded as 1.006, the Zscore_2 was −0.0969 and the Zscore_AVG came out at 0.4547.
Take `O=C(Nc1nc2ccccc2n1CCN1CCOCC1)c1cccc([N+](=O)[O-])c1` [IRAK-1/4 Inhibitor]: the Zscore_1 is given as −0.5038, the Zscore_2 is listed as −1.963 and the Zscore_AVG is given as −1.233.
`O=C1Nc2ccccc2/C1=C1/Nc2ccccc2/C1=N\OCC(O)CO` (stereo not drawn) [Indirubin Derivative E804]: the Zscore_1 is given as 20.78, the Zscore_2 stood at 24.43 and the Zscore_AVG came out at 22.6.
In the case of `O=C1Nc2ccc(I)cc2/C1=C1/Nc2ccccc2/C1=N\O` [Indirubin-3′-monoxime, 5-Iodo-], the Zscore_1 is 10.18, the Zscore_2 was found to be 17.16 and the Zscore_AVG is reported as 13.67.
`COc1cc2ncnc(Nc3ccc(O)c(Br)c3)c2cc1OC` [JAK3 Inhibitor II] came in with a Zscore_1 of −0.7783, a Zscore_2 of −1.36 and a Zscore_AVG of −1.069.
On to `CC(C)N(CCC(=O)c1ccc2ccccc2c1)Cc1ccccc1` [JAK3 Inhibitor IV], for which the Zscore_1 worked out at 0.2022, the Zscore_2 is on record as 0.908 and the Zscore_AVG is recorded as 0.5551.
`CC(C)(C)c1nc2c3cc[nH]c(=O)c3c3cc(F)ccc3c2[nH]1` [JAK Inhibitor I] had a Zscore_1 of −4.034, a Zscore_2 of −6.012 and a Zscore_AVG of −5.023.
In turn, `O=C1c2ccccc2-c2n[nH]c3cccc1c23` [JNK Inhibitor II] had a Zscore_1 of 0.4426, a Zscore_2 of 0.5814 and a Zscore_AVG of 0.512.
`N#Cc1c(NC(=O)c2cccc3ccccc23)sc2c1CCCC2` [JNK Inhibitor IX] came in with a Zscore_1 of 0.5842, a Zscore_2 of −0.05285 and a Zscore_AVG of 0.2657.
For `CCOc1nc(NC(=O)Cc2cc(OC)ccc2OC)cc(N)c1C#N` [JNK Inhibitor VIII], in that order: −1.284, −2.969 and −2.126.
In the case of `N#CC(c1ccnc(NCCc2cccnc2)n1)c1nc2ccccc2s1` (stereo not drawn) [JNK Inhibitor V], the Zscore_1 was −0.3788, the Zscore_2 worked out at 3.626 and the Zscore_AVG was determined as 1.623.
`Cn1nc2c3c(cccc31)C(=O)c1ccccc1-2` [JNK Inhibitor, Negative Control] returned a Zscore_1 of 0.1027, a Zscore_2 of 1.046 and a Zscore_AVG of 0.5746.
